Experimental data from patent publication US4956171A, “Transdermal drug delivery using a dual permeation enhancer and method of performing the same” (Paco Pharmaceutical Services, Inc., priority 1989, dated 1990).
Counter-ions that a name gives are not always drawn. Like-named read-outs stand apart in the source and are kept apart here.

What was measured:
[1] = In vitro flux of drug from saturated test solutions through human cadaver skin into an infinite sink, Franz diffusion cell; assay type: in vitro ADME
Procedure: For the evaluation of the degree of permeation enhancement, saturated test solutions of buprenorphine HCl in methyl laurate and/or sucrose cocoate were directly applied onto the epidermis side of human cadaver skin loaded between donor and receptor compartments of a standard Franz diffusion cell. The cell was kept at 35° C. during the diffusion study. […] The sucrose cocoate used for the test is commercially available in a 48 wt. % aqueous solution under the trade name Crodesta® SL-40, through Croda, Inc.

[2] = on over dosage; cited from earlier work
[3] = optimized delivery system, constant rate over extended time periods
[4] = In vitro release rate from the reservoir-type system into an infinite sink; conditions: Example 1 reservoir-type system
[5] = relative to morphine; background statement; cited from earlier work
[6] = cited from earlier work
[7] = Table 4, saturated in 48 wt. % sucrose cocoate aqueous solution
[8] = Table 4, saturated in 100 wt. % methyl laurate
[9] = Table 4, saturated in methyl laurate : 48 wt. % sucrose cocoate aqueous solution 3:7
[10] = Example 1 reservoir-type system, 35° C.

CO[C@]12CC[C@@]3(C[C@@H]1[C@](C)(O)C(C)(C)C)[C@H]1Cc4ccc(O)c5c4[C@@]3(CCN1CC1CC1)[C@H]2O5 [buprenorphine HCl]
skin flux, Solution B ([1]; Table 3, saturated in 48 wt. % sucrose cocoate aqueous solution, 35° C.): 100 μg/cm^2 /day
skin flux, Solution A ([1]; Table 3, saturated in 100 wt. % methyl laurate, 35° C.): 8 μg/cm^2 /day
skin flux, Solution A:B(1:9) ([1]; Table 3, saturated in methyl laurate : 48 wt. % sucrose cocoate aqueous solution 1:9, 35° C.): 226 μg/cm^2 /day
amount delivered (Example 1 reservoir-type system, during the 72 hour period): 360 μg/cm^2
loaded amount transdermally delivered (Example 1 reservoir-type system, over 72 hours, initial load about 1800 μg/cm^2): about 20 wt. %

COC(=O)C1=C(C)NC(C)=C(C(=O)OC)C1c1ccccc1[N+](=O)[O-] [Nifedipine]
Flux, Solution B [1, 7]: 14 μg/cm^2 /day
Flux, Solution A [1, 8]: 15 μg/cm^2 /day
Flux, Solution A:B(3:7) [1, 9]: 23 μg/cm^2 /day

C[C@]12CC[C@@H]3c4ccc(O)cc4CC[C@H]3[C@@H]1CC[C@@H]2O [Estradiol]
Flux, Solution B [1, 7]: 7.4 μg/cm^2 /day
Flux, Solution A [1, 8]: 4.3 μg/cm^2 /day

C[C@]12C=CC(=O)C=C1CC[C@@H]1[C@@H]2[C@@H](O)C[C@@]2(C)[C@H]1CC[C@]2(O)C(=O)CO [Prednisolone]
Flux, Solution B [1, 7]: 8 μg/cm^2 /day
Flux, Solution A [1, 8]: 51 μg/cm^2 /day
Flux, Solution A:B(3:7) [1, 9]: 188 μg/cm^2 /day

CC(C)Cc1ccc(C(C)C(=O)O)cc1 (stereo not drawn) [Ibuprofen]
Flux, Solution B [1, 7]: 547 μg/cm^2 /day
Flux, Solution A [1, 8]: 586 μg/cm^2 /day
Flux, Solution A:B(3:7) [1, 9]: 1897 μg/cm^2 /day

CO[C@]12CC[C@@]3(C[C@@H]1[C@](C)(O)C(C)(C)C)[C@H]1Cc4ccc(O)c5c4[C@@]3(CCN1CC1CC1)[C@H]2O5 [buprenorphine]
side effects [2]: severe side effects, particularly respiratory depression
skin irritation [3]: without uncomfortable skin irritation
release through the microporous membrane ([4]; infinite sink): rapid release
loaded amount depleted by release into an infinite sink ([4]; within the first 12 hours): more than 70 wt. %
analgesic activity, times more potent than morphine [5]: ~30 times
liver and intestinal metabolism ([6]; background statement): extensive liver and intestinal metabolism
bioavailability ([6]; due to extensive liver and intestinal metabolism): poor bioavailability
steady state buprenorphine flux (Example 1 reservoir-type system, 3 wt. % buprenorphine HCl, 35° C.): about 5 μg/cm^2 /hr.
period over which flux stayed at a constant rate [10]: 72 h
time to steady state flux [10]: an hour
period over which steady state flux remained substantially constant (Example 3 laminated matrix-type system): 72 h
steady state buprenorphine flux (Example 3 laminated matrix-type system, 5.5 wt. % buprenorphine HCl): about 3.5 μg/cm^2 /hr.
in vitro human cadaver skin delivery rate (dual permeation enhancer sucrose cocoate + methyl laurate, full range): 1-10 μg/cm^2 /hr.
in vitro human cadaver skin delivery rate, preferable range (dual permeation enhancer sucrose cocoate + methyl laurate, preferably): 2-6 μg/cm^2 /hr.

O=C(O)Cc1ccccc1Nc1c(Cl)cccc1Cl [Dichlofenac Sodium]
Flux, Solution A [1]: 14 μg/cm^2 /day
Flux, Solution A:B(3:7) [1]: 215 μg/cm^2 /day
Flux, Solution B [1]: 146 μg/cm^2 /day
